The text below walks through data of ChEMBL document CHEMBL3639097, “2-aryl imidazo[1,2-a]pyridine-3-acetamide derivatives, preparation methods and uses thereof” (2015).

This assay deals with Translocator protein (Rattus norvegicus, UniProt P16257). The experiment in a line: Competitive Binding Assay: Competitive Binding Test of Drug to the Receptor (Rat Heart TSPO) and Radioligand (3H-PK11195): (1) tubes were placed in reaction condition of 30 C.(2) all tubes were added with 20 ug of receptor protein in order;(3) the test tubes were added in order with 20 uL of drugs in certain concentrations;(4) the non-specific binding tubes were added with 20 uL of non-tagged ligand (PK11195), the final concentration of the non-tagged ligand was 0.1 mM, pre-reacted for 30 min;(5) all tubes were added in order with 25 uL 3H-PK11195, the final concentration of the labeled ligand was 1.5 nM;(6) Tris-HCl Buffer pH7.4 was used to complement the reaction volumes of all tubes to reach 200 uL;(7) the reaction was performed under 30 C. reaction condition for 1 h;(8) Then samples were applied to 49-type glass fibre filter, vacuum suction filtered, then washed with 2 ml ice-cold Tris-HCl buffer solution (50 mM Tris-HCl buffer solution, 1 mM EDTA, 5 mM MgCl2, 1 mM PMSF, 0.1% NaN3.

Broadly, the IC50 is the concentration that gives 50% inhibition. In general, Ki refers to a measure of affinity in units of concentration, obtained from inhibition or displacement. Low readings indicate tighter binding, high ones weaker binding. Compound `CCN(Cc1ccccc1)C(=O)Cc1c(-c2ccc(Cl)cc2)nc2cc(C)ccn12` registered a concentration for half-maximal inhibition (IC50) of 16.9 nM and a Ki of 7.17 nM.
Compound `CCN(Cc1ccccn1)C(=O)Cc1c(-c2ccc(Cl)c(Cl)c2)nc2cc(C)ccn12` had an IC50 of 21.9 nM and a Ki of 9.34 nM.
In turn, `CCN(Cc1ccncc1)C(=O)Cc1c(-c2ccc(Cl)c(Cl)c2)nc2cc(C)ccn12` registered a half-inhibitory concentration (IC50) of 26 nM and a Ki of 11.1 nM.
The compound `COCCN(Cc1ccccn1)C(=O)Cc1c(-c2ccc(Cl)c(Cl)c2)nc2cc(C)ccn12` displayed an IC50 of 15.6 nM and a Ki of 6.66 nM.
